Assay results as given in patent publication US20030134774A1, “Methods for inhibiting cardiac disorders” (priority 2001, published 2003).

Tests used:
[1] = system: p38-MAPK; test: Phospho-p38 MAP kinase Western blot in cardiomyocytes; type: cell-based, rat; conditions: rPMT 24 hr; sorbitol 5 min positive control
Procedure: (§1) rPMT promotes the activation of ERK1/2, JNK and p38-MAPK cascades. Incubations were for 24 hr in the presence of the indicated concentrations of rPMT. PMA (100 nM, 5 min) and sorbitol ([…], 5 min) were included as positive controls. Cell lysates were subjected to SDS-PAGE followed by Western blotting as described in Methods below. Phosphorylated forms of ERK1/2 (A), p38 MAP kinase (B) or JNK (C) were detected by specific anti-phospho-ERK1/2, -p38 MAP kinase or -JNK antibodies, respectively. Blots were stripped and subjected to immunoblot analysis with total ERK1/2 or p38 MAP kinase to normalize for minor variations in protein loading (Panels A and B). Top: representative autoradiograms (with each lane from a single gel exposed for the same duration). Bottom: quantification of each series of experiments (n=3).
(§2) Specific immunoreactivity for individual PKC isoforms was quantified according to methods described previously. […] Bands were detected by enhanced chemiluminescence and blots were quantified by laser scanning densitometry.

[2] = system: JNK; test: Phospho-JNK Western blot in cardiomyocytes; type: cell-based, rat; conditions: rPMT 24 hr; sorbitol 5 min positive control
Procedure: as §1, §2

[3] = system: AKT; test: Phospho-AKT and total AKT Western blot in cardiomyocytes; type: cell-based, rat; conditions: for basal AKT phosphorylation after acute treatment: PMA 100 nM, NE 10 μM
Procedure: rPMT decreases basal AKT phosphorylation and prevents its phosphorylation by EGF. Neonatal rat cardiomyocytes were treated with rPMT (400 ng/ml) for 24 hr (Panel A), 48 hr (Panel B) or with EGF (50 ng/ml) for 5 min. Cell lysates were subjected to SDS-PAGE followed by Western blotting with antibodies that recognize the phosphorylated form or total AKT. Data are from representative gels, with similar results obtained in 3 separate experiments.
Panel A: Cells were treated with norepinephrine (NE, 10 μM) or PMA (100 nM) for 5 min without or with GF109203 (5 μM).
Panel B: Cells were treated with rPMT (400 ng/ml), NE (10 μM) or PMA (100 nM) for 24 hr without or with Go6983 (5 μM). […] Cell lysates were subjected to SDS-PAGE followed by Western blotting using a specific anti-phospho-AKT antibody. Data are from representative gels, with similar results obtained in 3 separate culture preparations.
(§3) Specific immunoreactivity for individual PKC isoforms was quantified according to methods described previously. For assays of MAPKs and AKT, cells were exposed to test agents as indicated in individual experimental protocols, washed three times with ice-cold calcium/magnesium-free Dulbecco's PBS (pH 7.1), scraped into ice-cold extraction buffer [20 mM β-glycerophosphate pH 7.5, 20 mM sodium fluoride, 2 mM EDTA, 0.2 mM sodium vanadate, 10 μg/ml aprotinin, 25 μg/ml leupeptin, 50 μg/ml PMSF, and 0.3% (v/v) β-mercaptoethanol], lysed by sonication, and centrifuged at 10,000 g for 10 min at 4° C. The supernatant was diluted in SDS-PAGE sample buffer, boiled for 5 min, and stored at −70° C. Western blot analysis was performed with antibodies that are selective for the phosphorylated (activated) forms of ERK1/2, p38-MAPK, JNK, AKT, and pan-PKC according to manufacturer's instructions. For each panel in each Figure, the results are from a single gel exposed for a uniform duration. Bands were detected by enhanced chemiluminescence and blots were quantified by laser scanning densitometry.

[4] = system: PKC isoforms; test: Immunoblot of PKC isoform partitioning and down-regulation in cardiomyocytes; type: cell-based, rat; conditions: 24 hr experiments
Procedure: rPMT selectively activates nPKC isoforms. […] Soluble extracts were prepared and separated by SDS-PAGE followed by immunodetection of total PKC isoform abundance with antibodies that are specific for the individual PKC isoforms (Panel A), or phosphorylated forms of PKC (largely PKCε) with a pan-phospho-PKC antibody (Panels B and C), as described in Methods below. GF109203 was included at 5 μM 30 min prior to stimulation as indicated.
(§4) Cells were maintained in culture in the presence of 10% FCS for 96 hr and then switched to serum-free medium for 24 hr prior to the addition of agonists as indicated. For PKC, extracts were prepared and subjected to SDS-PAGE to resolve individual isoforms according to methods described previously (14).
as §2

[5] = target: T1, PKC-ε (Rattus norvegicus, UniProt P09216); test: Western blot with anti-phospho-PKC antibody in cardiomyocytes; type: cell-based; conditions: for PKC-ε phosphorylation/activation (phospho-PKC band pattern): NE 10 μM or PMA 100 nM for 5 min
T1 construct: PKCε is detected as a single band in quiescent cardiomyocytes; endogenous in cells; host or cells: cultured neonatal rat ventricular cardiomyocytes
T1 sequence (P09216 1-737): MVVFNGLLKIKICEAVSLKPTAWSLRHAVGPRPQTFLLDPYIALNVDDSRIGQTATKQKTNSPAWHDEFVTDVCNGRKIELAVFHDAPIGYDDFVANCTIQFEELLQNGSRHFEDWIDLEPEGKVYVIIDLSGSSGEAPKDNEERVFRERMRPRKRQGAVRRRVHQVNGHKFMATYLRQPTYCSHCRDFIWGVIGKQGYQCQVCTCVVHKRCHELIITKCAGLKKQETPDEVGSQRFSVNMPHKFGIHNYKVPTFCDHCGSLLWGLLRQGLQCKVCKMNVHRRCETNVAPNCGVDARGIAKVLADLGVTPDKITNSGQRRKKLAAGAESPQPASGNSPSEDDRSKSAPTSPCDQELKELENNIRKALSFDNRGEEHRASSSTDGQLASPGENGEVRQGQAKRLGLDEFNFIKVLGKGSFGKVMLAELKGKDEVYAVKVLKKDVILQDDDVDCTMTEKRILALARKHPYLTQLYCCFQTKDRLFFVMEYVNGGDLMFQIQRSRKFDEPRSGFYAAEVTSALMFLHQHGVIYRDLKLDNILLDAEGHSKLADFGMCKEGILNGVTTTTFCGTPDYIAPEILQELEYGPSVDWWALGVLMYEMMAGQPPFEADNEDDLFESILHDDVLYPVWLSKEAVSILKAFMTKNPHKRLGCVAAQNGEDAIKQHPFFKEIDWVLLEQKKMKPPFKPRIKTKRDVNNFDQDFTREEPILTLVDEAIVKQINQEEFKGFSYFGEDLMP
Procedure: (§5) rPMT selectively activates nPKC isoforms. Cardiomyocyte cultures were incubated in culture medium without or with NE (10 μM), rPMT (400 ng/ml) or PMA (100 nM) for 24 hr (Panels A and C) or 5 min (Panel B). Soluble extracts were prepared and separated by SDS-PAGE followed by immunodetection of total PKC isoform abundance with antibodies that are specific for the individual PKC isoforms (Panel A), or phosphorylated forms of PKC (largely PKCε) with a pan-phospho-PKC antibody (Panels B and C), as described in Methods below. GF109203 was included at 5 μM 30 min prior to stimulation as indicated.
as §3

[6] = system: ERK1/2 in cardiac fibroblasts; test: Phospho-ERK1/2 Western blot in cardiac fibroblasts; type: cell-based, rat; conditions: AG1478 2 μM
Procedure: (§6) rPMT transactivation of the EGF receptor in cardiac fibroblasts, but not cardiomyocytes. Neonatal rat cardiomyocytes (Panel A) and cardiac fibroblasts (Panel B) were treated with rPMT (400 ng/ml) for 24 hr or EGF (50 ng/ml) for 5 min without or with AG1478 (2 μM, starting 30 min prior to stimulation). Cell lysates were subjected to SDS-PAGE followed by Western blotting with the anti-phospho-ERK1/2 antibody. Data are from a representative gel, with similar results obtained in 3 separate experiments.
Cardiac myocytes were dissociated from the ventricles of two-day-old Wistar rats by a trypsin digestion protocol which incorporates a differential attachment procedure to enrich for cardiac myocytes, as described previously (13). For some experiments, attached cells were maintained as fibroblast cultures. For studies of inositol phosphates, MAPKs, AKT, and PKC cardiomyocytes were plated at a density of 5×10^5 cells per ml (2 ml per 35-mm dish; 1 ml per 22.1-mm dish) and were cultured in MEM supplemented with 10% fetal calf serum. […]
as §2

[7] = system: ERK1/2; test: Phospho-ERK1/2 Western blot in cardiomyocytes; type: cell-based, rat; conditions: cardiomyocytes; for effect on ERK phosphorylation/activation by rPMT: rPMT 400 ng/ml 24 hr
Procedure: as §1, §6
as §3, with “The supernatant was diluted in SDS-PAGE sample buffer, boiled for 5 min, and stored at −70° C. Western blot analysis was performed with antibodies that are selective for the phosphorylated (activated) forms of ERK1/2, p38-MAPK, JNK, AKT, and pan-PKC according to manufacturer's instructions. For each panel in each Figure, the results are from a single gel exposed for a uniform duration.” left out

[8] = system: cardiomyocytes; test: Protein synthesis ([3H]phenylalanine incorporation) in cardiomyocytes; type: cell-based, rat; conditions: rPMT 400 ng/ml or NE 10 μM, 48 hr, serum-free
Procedure: (§7) rPMT mimics the effect of norepinephrine to promote cardiomyocyte hypertrophy. Cardiomyocytes were cultured in serum-free medium without or with rPMT (400 ng/ml) or norepinephrine (NE, 10 μM) for 48 hr. Cardiomyocytes were fixed, permeabilized, and stained with monoclonal anti-α-actinin sarcomeric (Panel A, magnification×100) or subjected to Northern blot analysis for measurements of steady-state ANF mRNA expression (Panel B). Effects of rPMT (black bars) and NE (gray bars) vs. vehicle (white bars) on sarcomeric organization (Panel C), cell size (Panel D), and protein synthesis (Panel E) are illustrated (n=3 for each).
As a second index of cardiomyocyte growth, relative rates of protein synthesis were measured as radiolabeled phenylalanine incorporation into cell protein. Cells were stimulated in serum-free medium with agonists (or vehicle as control) for 48 hr at 37° C. The medium was replaced with serum-free medium containing [^3H]phenylalanine (0.1 μCi/ml) and non-radioactive phenylalanine (0.3 mM, to minimize variations in the specific activity of the precursor pool responsible for protein synthesis) during the final 24 hr of stimulation. Cells were rinsed with PBS and incubated in 10% trichloroacetic acid for 30 min on ice. […] Aliquots of the SDS-soluble protein were counted in 5 ml of scintillant.

[9] = system: ANF mRNA; test: Northern blot analysis of ANF mRNA in cardiomyocytes; type: cell-based, rat; conditions: rPMT 400 ng/ml or NE 10 μM, 48 hr, serum-free
Procedure: as §7
Total RNA from neonatal rat cardiomyocytes were isolated by using a Qiagen kit according to manufacturer's instructions. A rat ANF cDNA probe (˜600 bp) was labeled with [^32P]dCTP. 10 μ/g of total RNA was separated on a 1% agarose gel and transferred to a nylon membrane (Amersham). Prehybridization and hybridization were performed according to standard methods. Normalization of signals was performed with a glyceraldehyde-3-phosphate dehydrogenase probe. Signals were detected by Phosphorimage analysis.

[10] = system: cardiomyocytes; test: Cardiomyocyte growth: sarcomeric organization and cell size; type: cell-based, rat; conditions: rPMT 400 ng/ml or NE 10 μM, 48 hr, serum-free
Procedure: as §7
Cardiomyocyte growth was assessed by measuring cell surface area by digitized image analysis. For each experimental point, 7-10 frames/dish were recorded at 40× magnification with a video camera attached to a Nikon microscope which was calibrated with a micrometer.
Cardiomyocytes were grown on slides precoated with fibronectin. After treatment, cells were fixed with cold methanol and permeabilized with 0.1% Triton X-100 and 0.2% BSA. Cells were incubated with α-actinin monoclonal antibody overnight at 4° C. followed by anti-mouse IgG-Cy3-labeled antibody for 30 min at room temperature. Fluorescence microscopy images were obtained at 100× magnification.

[11] = system: PKCα and PKCλ; test: Immunoblot of PKCα/PKCλ abundance and distribution in cardiomyocytes; type: cell-based, rat; conditions: 24 hr stimulation
Procedure: as §5, §4, §2

[12] = system: PKCδ and PKCε; test: Immunoblot of nPKC isoform abundance in cardiomyocytes; type: cell-based, rat; conditions: 24 hr stimulation
Procedure: as §5, §4, §2

How did the “magnitude of p38-MAPK activation” value [1] turn out when OC[C@@H](O)[C@@H](O)[C@H](O)[C@@H](O)CO [sorbitol, reference compound] was run?
The value was “strong activation”.

And the “magnitude of JNK activation” value [2]?
Its value is “strong activation”.

What does the source list for COc1ccc2c(c1)c(C1=C(c3c[nH]c4ccccc34)C(=O)NC1=O)cn2CCCN(C)C [Go6983, reference compound]?
effect on negative regulation of AKT by rPMT ([3]; Go6983 5 μM, 24 hr): abrogates; inhibition of PMA-dependent down-regulation of PKC isoforms [4]: completely inhibited

What does the source list for CCCCCCCCCCCCCC(=O)O[C@@H]1[C@@H](C)[C@@]2(O)[C@@H](C=C(CO)C[C@]3(O)C(=O)C(C)=C[C@@H]23)[C@@H]2C(C)(C)[C@]12OC(C)=O [PMA, reference compound]?
basal AKT phosphorylation after acute treatment ([3]; 5 min): reduce basal AKT phosphorylation; basal AKT phosphorylation after 24 hr treatment ([3]; 24 hr, relative to control cultures): reduced; phospho-PKC immunoreactivity during pharmacologic down-regulation ([5]; 24 hrs): drastically reduced; PKC-ε phosphorylation/activation (phospho-PKC band pattern) [5]: slower mobility, more-highly phosphorylated species

What does the source list for COc1cc2ncnc(Nc3cccc(Cl)c3)c2cc1OC [AG1478, reference compound]?
effect on ERK activation by EGF [6]: marked effect to prevent ERK activation; effect on ERK activation by rPMT [6]: marked effect to prevent ERK activation; effect on EGF receptor-mediated ERK phosphorylation ([7]; AG1478 2 μM, EGF 50 ng/ml 5 min): effectively blocks; effect on ERK phosphorylation/activation by rPMT [7]: only a very minor reduction

Which “AKT activation in control cultures” value ([3]; EGF 50 ng/ml, 5 min) does the source give for EGF: epidermal growth factor here?
The value was “robust”.

Which “basal AKT phosphorylation after acute treatment” value ([3]; 5 min) does the source give for NC[C@H](O)c1ccc(O)c(O)c1 [NE, norepinephrine, reference compound] here?
The value was “not”.

And the “[3H]phenylalanine incorporation (protein synthesis)” value [8]?
The value was “enhance [^3H]phenylalanine incorporation”.

What about the “ANF mRNA expression” value [9] of the same molecule?
The value was “induce ANF mRNA expression”.

And the “cell size (cellular enlargement)” value [10]?
The value was “induce marked cellular enlargement”.

And the “myofibrillar (sarcomeric) organization” value [10]?
Its value is “promote myofibrillar organization”.

And the “PKC-ε phosphorylation/activation (phospho-PKC band pattern)” value [5]?
Its value is “slower mobility, more-highly phosphorylated species”.

And the “abundance and subcellular distribution of PKCα and PKCλ” value [11]?
The value was “is not altered”.

And the “abundance of PKCδ and PKCε in the soluble fraction” value [12]?
Its value is “significantly reduce”.

Which results are given for CN(C)CCCn1cc(C2=C(c3c[nH]c4ccccc34)C(=O)NC2=O)c2ccccc21 [GF109203, reference compound]?
effect on inhibitory modulation of AKT phosphorylation by PMA ([3]; GF109203 5 μM, 5 min PMA): prevented; inhibition of PMA-dependent down-regulation of PKC isoforms [4]: did not; effect on appearance of the more highly phosphorylated PKC-ε band induced by NE or PMA ([5]; inhibitor 5 μM, 30 min prior to stimulation): prevented; effect on ERK phosphorylation/activation by rPMT [7]: markedly inhibited
